Measurements: patent publication US10620214B2, “Chloroalkane penetration method for quantifying access of a molecule into a cell” (TRUSTEES OF TUFTS COLLEGE, priority 2016, dated 2020)

System: HaloEnzyme-GFP-expressing HeLa cell line
Assay: Chloroalkane Penetration Assay (CAPA), cytosolic access
Format: cell-based
Description: FIG. 1A provides a schematic showing the experimental procedure of CAPA, which uses a HaloEnzyme-GFP-expressing HeLa cell line. […] For CAPA, cells are pre-treated with vehicle or peptide, washed, and chased with HTag-TAMRA. Cells treated with cell-penetrant molecules have had their HaloEnzyme blocked, thus preventing the HTag-TAMRA from covalently labeling the cells. In this schematic, the molecule of interest is a peptide.
FIG. 1C provides a graph showing the dose-dependent response curve of HTag-TAMRA signal after pre-incubation with different concentrations of HTag-cTMP, HTag-DD5o, and the negatively charged, linear variant HTag-DD5-neg. Data was normalized using the values obtained for vehicle (0% HTag-TAMRA signal inhibition) and for vehicle with no HTag-TAMRA added (100% signal inhibition). Points are means from three independent experiments and error bars show standard deviation.
The CAPA method uses a cell line that stably expresses a cytosolically-oriented protein as a fusion with GFP and Haloenzyme. Haloenzyme is a modified bacterial chloroalkane dehalogenase that covalently labels itself with the small, otherwise inert Haloligand functional group. If an exogenously added molecule bearing the Haloligand (a small chloroalkane) reaches the cytosol, it reacts exclusively with the Haloenzyme and blocks its active site. Following this incubation period, the amount of unreacted Haloenzyme was measured by chasing with a Haloligand-bearing dye (here, Htag-TAMRA). The relative amount of red cellular fluorescence after this chase was then quantified by flow cytometry. The red signal reported directly on the amount of free Haloenzyme, which is inversely proportional to the degree to which the added molecule accessed the cytoplasm during the incubation period.
Halo-GFP-Mitochondrial targeted (Mito.)+mCherry-dihydrofolate reductase (DHFR) HeLa cells were obtained from the Chenoweth Lab as described by (Ballister et al., Nat. Commun. 2014. 5, 1-9), which is incorporated herein by reference. The expression vector used for the incorporation of GFP-Haloenzyme is shown at FIG. 3. Cells were cultured using DMEM+10% FBS+1% Pen/Strep+1 μg/mL puromycin. For experiments, cells were seeded in a 24-well plate the day before at 1.0×10^5 cells/well. Materials for cell culture were purchased from Thermo Scientific.
Cells were rinsed 1× with PBS, then treated with peptides in acidified Opti-MEM (0.15% 6N HCl) for 4 hours. Media was aspirated and cells were washed for 30 min with phenol red-free DMEM+10% FBS+1% pen/strep. Cells were chased with 5 μM HTag-TAMRA (Promega) in phenol red-free DMEM+10% FBS+1% pen/strep for 30 min. Cells were washed for 15 min with phenol red-free DMEM+10% FBS+1% pen/strep. Cells were rinsed once with phosphate buffered saline (PBS), then trypsinized and transferred to 1.5 mL Eppendorf tubes. Cells were pelleted and washed twice with PBS. Cell pellet was resuspended in 250 μL of PBS and 200 μL were transferred to 96-well plate for flow cytometry analysis. Data was gated for live cells measuring 10,000 cells per sample. Mean fluorescence intensity was obtained in the Yellow channel for HTag-TAMRA, and data was normalized. Background yellow fluorescence was observed both by flow cytometry and microscopy due to the constituent expression of mCherry-DHFR, but the signal observed for HTag-TAMRA-treated cells was 10-fold higher than background.

[1] = 50 μM inhibitor for 1 hr, then biomolecule 4 hr at 37° C., FIG. 5D

SMILES | effect of EIPA on cytosolic penetration [1] | effect of chlorpromazine on cytosolic penetration [1] | time course of cytosolic penetration (FIG. 5A) | cytosolic penetration at 37° C. versus 4° C.
N[C@@H](Cc1c[nH]c2ccccc12)C(=O)O [Trp] | no significant reduction in cytosolic penetration | no effect | time-dependent cytosolic penetration | 
N=C(N)NCCC[C@H](NC(=O)[C@H](CCCNC(=N)N)NC(=O)[C@H](CCCNC(=N)N)NC(=O)[C@H](CCCNC(=N)N)NC(=O)[C@H](CCCNC(=N)N)NC(=O)[C@H](CCCNC(=N)N)NC(=O)[C@H](CCCNC(=N)N)NC(=O)[C@H](CCCNC(=N)N)NC(=O)[C@H](CCCNC(=N)N)NC(=O)CCC(=O)NCCOCCOCCCCCCCl)C(N)=O [Arg9] | no significant reduction in cytosolic penetration |  |  | significantly greater at 37 °C compared to 4 °C
